# From patent publication US8889874B2, “Imidazolone-chalcone derivatives as potential anticancer agent and process for the preparation thereof” (Council of Scientific and Industrial Research, priority 2010, dated 2014)
# Read-outs that look alike come from different tables or passages of the source.
# Tests used:
# Assay in all cases: NCI anticancer screen, SRB assay, 48 h
# Format in all cases: cell-based, human
# BT-549 (breast) = tested on: BT-549 (breast)
# Method in brief: (§1)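 Sulforhodamine B protein assay read cell growth after 48 h of continuous compound exposure. Dose-response curves per cell line used at least five 10-fold-diluted concentrations, within a panel of fifty-three human lines from nine tumour types.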
# COLO 205 (colon) = details: for GI50: COLO 205
# Method in brief: as §1
# HCC-2998 (colon) = tested on: HCC-2998 (colon)
# Method in brief: as §1
# HCT-116 (colon) = tested on: HCT-116 (colon)
# Method in brief: as §1
# HCT-15 (colon) = tested on: HCT-15 (colon)
# Method in brief: as §1
# [1] = tested on: HOP-62 (non-small cell lung); details: for GI50: Homo sapiens
# Method in brief: as §1
# HT29 (colon) = tested on: HT29 (colon)
# Method in brief: as §1
# LOX IMVI (melanoma) = tested on: LOX IMVI (melanoma)
# Method in brief: as §1
# M14 (melanoma) = tested on: M14 (melanoma)
# Method in brief: as §1
# MCF7 (breast) = tested on: MCF7 (breast)
# Method in brief: as §1
# MDA-MB-231/ATCC (breast) = tested on: MDA-MB-231/ATCC (breast)
# Method in brief: as §1
# MDA-MB-435 (melanoma) = tested on: MDA-MB-435 (melanoma)
# Method in brief: as §1
# [2] = tested on: NCI-H322M (non-small cell lung)
# Method in brief: as §1
# NCI/ADR-RES (ovarian) = tested on: NCI/ADR-RES (ovarian)
# Method in brief: as §1
# OVCAR-3 (ovarian) = tested on: OVCAR-3 (ovarian)
# Method in brief: as §1
# OVCAR-4 (ovarian) = tested on: OVCAR-4 (ovarian)
# Method in brief: as §1
# OVCAR-5 (ovarian) = tested on: OVCAR-5 (ovarian)
# Method in brief: as §1
# PC-3 (prostate) = details: Homo sapiens
# Method in brief: as §1
# [3] = tested on: RPMI-8226 (leukemia cell line)
# Method in brief: as §1
# RXF 393 (renal) = tested on: RXF 393 (renal)
# Method in brief: as §1
# SF-268 (CNS) = tested on: SF-268 (CNS)
# Method in brief: as §1
# SF-295 (CNS) = tested on: SF-295 (CNS)
# Method in brief: as §1
# SK-MEL-2 (melanoma) = tested on: SK-MEL-2 (melanoma)
# Method in brief: as §1
# SNB-75 (CNS) = details: for GI50: Homo sapiens
# Method in brief: as §1
# U251 (CNS) = tested on: U251 (CNS)
# Method in brief: as §1
# UACC-62 (melanoma) = tested on: UACC-62 (melanoma)
# Method in brief: as §1
# UO-31 (renal) = tested on: UO-31 (renal)
# Method in brief: as §1
# [4] = tested on: NCI-H522 (non-small cell lung)
# Method in brief: as §1
# TK-10 (renal) = tested on: TK-10 (renal)
# Method in brief: as §1
# [5] = Homo sapiens, 48 h exposure, SRB, read-out: GI50
# [6] = Homo sapiens, read-out: pGI50 (-log of molar concentration causing 50% inhibition of net cell growth) (converted)
# [7] = 48 h exposure, SRB, read-out: GI50
# [8] = read-out: pGI50 (-log of molar concentration causing 50% inhibition of net cell growth) (converted)
smiles,measurement,setting,value
"O=C(/C=C/c1cccc(O)c1)c1cccc(-n2cc(-c3ccccc3)[nH]c2=O)c1 [4a, 1-3-[(E)-3-(3-hydroxyphenyl)-2-propenoyl]phenyl-4-phenyl-2,3-dihydro-1H-2-imidazolone]",GI50,BT-549 (breast); [5],9.32 µM
same,GI50,BT-549 (breast); [6],9.33 µM
same,GI50,"COLO 205 (colon); Homo sapiens, COLO205, read-out: pGI50 (-log of molar concentration causing 50% inhibition of net cell growth) (converted)",2 µM
same,GI50,COLO 205 (colon); [5],2.01 µM
same,GI50,HCC-2998 (colon); [5],4.09 µM
same,GI50,HCC-2998 (colon); [6],4.07 µM
same,GI50,HCT-116 (colon); [5],3.02 µM
same,GI50,HCT-116 (colon); [6],3.02 µM
same,GI50,HCT-15 (colon); [5],3.1 µM
same,GI50,HCT-15 (colon); [6],3.09 µM
same,GI50,[1]; [7],6.93 µM
same,GI50,[1]; [8],6.92 µM
same,GI50,"HT29 (colon); Homo sapiens, HT-29, 48 h exposure, SRB, read-out: GI50",3.33 µM
same,GI50,"HT29 (colon); Homo sapiens, HT-29, read-out: pGI50 (-log of molar concentration causing 50% inhibition of net cell growth) (converted)",3.31 µM
same,GI50,LOX IMVI (melanoma); [5],1.85 µM
same,GI50,LOX IMVI (melanoma); [6],1.86 µM
same,GI50,M14 (melanoma); [5],4.53 µM
same,GI50,M14 (melanoma); [6],4.57 µM
same,GI50,MCF7 (breast); [5],2.47 µM
same,GI50,MCF7 (breast); [6],2.45 µM
same,GI50,MDA-MB-231/ATCC (breast); [5],3.86 µM
same,GI50,MDA-MB-231/ATCC (breast); [6],3.89 µM
same,GI50,MDA-MB-435 (melanoma); [5],3.12 µM
same,GI50,MDA-MB-435 (melanoma); [6],3.09 µM
same,GI50,[2]; [5],10.6 µM
same,GI50,[2]; [6],10.7 µM
same,GI50,"NCI/ADR-RES (ovarian); Homo sapiens, NCI/ADR-RES, NCl/ADR-RES, 48 h exposure, SRB, read-out: GI50",3.73 µM
same,GI50,"NCI/ADR-RES (ovarian); Homo sapiens, NCI/ADR-RES, read-out: pGI50 (-log of molar concentration causing 50% inhibition of net cell growth) (converted)",3.72 µM
same,GI50,OVCAR-3 (ovarian); [5],3.08 µM
same,GI50,OVCAR-3 (ovarian); [6],3.09 µM
same,GI50,OVCAR-4 (ovarian); [5],5.3 µM
same,GI50,OVCAR-4 (ovarian); [6],5.25 µM
same,GI50,OVCAR-5 (ovarian); [5],5.44 µM
same,GI50,OVCAR-5 (ovarian); [6],5.5 µM
same,GI50,"PC-3 (prostate); PC-3, read-out: pGI50 (-log of molar concentration causing 50% inhibition of net cell growth) (converted)",2.82 µM
same,GI50,"PC-3 (prostate); one prostate cancer cell line (PC-3), exposure at least 48 hrs, read-out: GI50",2.82 µM
same,GI50,[3]; [5],2.15 µM
same,GI50,[3]; [6],2.14 µM
same,GI50,"RXF 393 (renal); Homo sapiens, RXF 393, 48 h exposure, SRB, read-out: GI50",1.89 µM
same,GI50,"RXF 393 (renal); Homo sapiens, RXF-393, read-out: pGI50 (-log of molar concentration causing 50% inhibition of net cell growth) (converted)",1.91 µM
same,GI50,SF-268 (CNS); [5],4.53 µM
same,GI50,SF-268 (CNS); [6],4.57 µM
same,GI50,SF-295 (CNS); [5],18.2 µM
same,GI50,SF-295 (CNS); [6],18.2 µM
same,GI50,SK-MEL-2 (melanoma); [5],8.26 µM
same,GI50,SK-MEL-2 (melanoma); [6],8.32 µM
same,GI50,SNB-75 (CNS); [7],12.1 µM
same,GI50,SNB-75 (CNS); [8],12 µM
same,GI50,"U251 (CNS); Homo sapiens, U-251, 48 h exposure, SRB, read-out: GI50",1.61 µM
same,GI50,"U251 (CNS); Homo sapiens, U-251, read-out: pGI50 (-log of molar concentration causing 50% inhibition of net cell growth) (converted)",1.62 µM
same,GI50,UACC-62 (melanoma); [5],3.65 µM
same,GI50,UACC-62 (melanoma); [6],3.63 µM
same,GI50,UO-31 (renal); [5],2.16 µM
same,GI50,UO-31 (renal); [6],2.14 µM
"COc1cc(/C=C/C(=O)c2cccc(-n3cc(-c4ccc(Cl)cc4)[nH]c3=O)c2)cc(OC)c1OC [5f, 4-(4-chlorophenyl)-1-3-[(E)-3-(3,4,5-trimethoxyphenyl)-2-propenoyl]phenyl-2,3-dihydro-1H-2-imidazolone]",pGI50 (-log of molar concentration causing 50% inhibition of net cell growth),BT-549 (breast),4.91
same,GI50,BT-549 (breast); [7],12.3 µM
same,pGI50 (-log of molar concentration causing 50% inhibition of net cell growth),COLO 205 (colon); COLO205,5.13
same,GI50,COLO 205 (colon); [7],7.38 µM
same,pGI50 (-log of molar concentration causing 50% inhibition of net cell growth),HCC-2998 (colon),5.61
same,GI50,HCC-2998 (colon); [7],2.46 µM
same,pGI50 (-log of molar concentration causing 50% inhibition of net cell growth),HCT-116 (colon),5.86
same,GI50,HCT-116 (colon); [7],1.39 µM
same,pGI50 (-log of molar concentration causing 50% inhibition of net cell growth),HCT-15 (colon),5.41
same,GI50,HCT-15 (colon); [7],3.85 µM
same,pGI50 (-log of molar concentration causing 50% inhibition of net cell growth),[1],4.63
same,pGI50 (-log of molar concentration causing 50% inhibition of net cell growth),HT29 (colon),5.70
same,GI50,HT29 (colon); [7],2 µM
same,pGI50 (-log of molar concentration causing 50% inhibition of net cell growth),LOX IMVI (melanoma),5.76
same,GI50,LOX IMVI (melanoma); [7],1.72 µM
same,pGI50 (-log of molar concentration causing 50% inhibition of net cell growth),M14 (melanoma),5.36
same,GI50,M14 (melanoma); [7],4.36 µM
same,pGI50 (-log of molar concentration causing 50% inhibition of net cell growth),MCF7 (breast),5.76
same,GI50,MCF7 (breast); [7],1.74 µM
same,pGI50 (-log of molar concentration causing 50% inhibition of net cell growth),MDA-MB-231/ATCC (breast),4.86
same,GI50,MDA-MB-231/ATCC (breast); [7],13.8 µM
same,pGI50 (-log of molar concentration causing 50% inhibition of net cell growth),MDA-MB-435 (melanoma),5.44
same,GI50,MDA-MB-435 (melanoma); [7],3.63 µM
same,pGI50 (-log of molar concentration causing 50% inhibition of net cell growth),[2],4.89
same,GI50,[2]; [7],12.9 µM
same,pGI50 (-log of molar concentration causing 50% inhibition of net cell growth),[4],5.39
same,GI50,[4]; [7],4.1 µM
same,pGI50 (-log of molar concentration causing 50% inhibition of net cell growth),NCI/ADR-RES (ovarian); NCI/ADR-RES,5.63
same,GI50,"NCI/ADR-RES (ovarian); NCl/ADR-RES, 48 h exposure, SRB, read-out: GI50",2.36 µM
same,pGI50 (-log of molar concentration causing 50% inhibition of net cell growth),OVCAR-3 (ovarian),5.61
same,GI50,OVCAR-3 (ovarian); [7],2.4 µM
same,pGI50 (-log of molar concentration causing 50% inhibition of net cell growth),OVCAR-4 (ovarian),4.94
same,GI50,OVCAR-4 (ovarian); [7],11.4 µM
same,pGI50 (-log of molar concentration causing 50% inhibition of net cell growth),OVCAR-5 (ovarian),5.51
same,GI50,OVCAR-5 (ovarian); [7],3.11 µM
same,pGI50 (-log of molar concentration causing 50% inhibition of net cell growth),[3],5.41
same,GI50,[3]; [7],3.92 µM
same,GI50,"RXF 393 (renal); RXF 393, 48 h exposure, SRB, read-out: GI50",3.22 µM
same,pGI50 (-log of molar concentration causing 50% inhibition of net cell growth),RXF 393 (renal); RXF-393,5.49
same,pGI50 (-log of molar concentration causing 50% inhibition of net cell growth),SF-268 (CNS),5.29
same,GI50,SF-268 (CNS); [7],5.07 µM
same,pGI50 (-log of molar concentration causing 50% inhibition of net cell growth),SF-295 (CNS),4.61
same,GI50,SF-295 (CNS); [7],24.3 µM
same,pGI50 (-log of molar concentration causing 50% inhibition of net cell growth),SK-MEL-2 (melanoma),5.46
same,GI50,SK-MEL-2 (melanoma); [7],3.44 µM
same,pGI50 (-log of molar concentration causing 50% inhibition of net cell growth),SNB-75 (CNS),4.69
same,pGI50 (-log of molar concentration causing 50% inhibition of net cell growth),TK-10 (renal),5.19
same,GI50,TK-10 (renal); [7],6.46 µM
same,pGI50 (-log of molar concentration causing 50% inhibition of net cell growth),U251 (CNS),5.67
same,GI50,U251 (CNS); [7],2.12 µM
same,pGI50 (-log of molar concentration causing 50% inhibition of net cell growth),UACC-62 (melanoma),5.05
same,GI50,UACC-62 (melanoma); [7],8.88 µM
same,pGI50 (-log of molar concentration causing 50% inhibition of net cell growth),UO-31 (renal),5.15
same,GI50,UO-31 (renal); [7],7.03 µM
